Literature values, collected in patent US20140212465A1, “TREATMENT AND PREVENTION OF DENTAL PATHOLOGY IN HUMANS AND NON-HUMAN ANIMALS” (priority 2011, published 2014).

Settings: aqueous environment

[Ca+2].[OH-].[OH-] [calcium hydroxide]
pH: 12.5
